In US10105357B2, “Indication of antibiotic drugs for preparation of cancer inhibition pharmaceutical composition” (LAUNX BIOMEDICAL CO., LTD., priority 2014, dated 2018):
Like-named read-outs stand apart in the source and are kept apart here.

What was measured:
Format in all cases: cell-based, human
[1] = test system: MCF7 (Mammary Gland, Adenocarcinoma); assay: Cell viability analysis, breast cancer MCF7; conditions: Homo sapiens, MCF7, 72 h
[2] = test system: MKN-45 (Gastric Adenocarcinoma); assay: Cell viability analysis, gastric cancer MKN-45; conditions: Homo sapiens, MKN-45, 72 h
[3] = test system: A375 (Amelanotic Melanoma); assay: Cell viability analysis, skin cancer A375; conditions: Homo sapiens, A-375, 72 h
[4] = test system: TSGH-8301 (Urinary Bladder Carcinoma); assay: Cell viability analysis, bladder cancer TSGH-8301; conditions: Homo sapiens, 72 h
[5] = test system: LoVo (Colorectal Adenocarcinoma); assay: Cell viability analysis, colon cancer LoVo; conditions: Homo sapiens, LoVo, 72 h, read-out: cell viability (survival rate), LoVo, drug 10 μM, 72 hours, WST-1, OD450 nm
[6] = test system: HL-60 (Acute Promyelocytic Leukemia); assay: Cell viability analysis, leukemia HL-60; conditions: Homo sapiens, HL-60, 72 h
[7] = test system: HeLa (Cervix Adenocarcinoma); assay: Cell viability analysis, cervical cancer HeLa; conditions: Homo sapiens, HeLa, 72 h
[8] = test system: AGS (Gastric Adenocarcinoma); assay: Cell viability analysis, gastric cancer AGS; conditions: Homo sapiens, 72 h
[9] = test system: PC3 (p53−) (Prostate Adenocarcinoma); assay: Cell viability analysis, prostate cancer PC3; conditions: Homo sapiens, 72 h
[10] = test system: HI650 (Lung Adenocarcinoma); assay: Cell viability analysis, lung cancer HI650; conditions: Homo sapiens, NCI-H1650, 72 h
[11] = test system: A549 (Lung Adenocarcinoma); assay: Cell viability analysis, lung cancer A549; conditions: Homo sapiens, A549, 72 h
cancer cell lines = assay: Cell viability analysis (WST-1) on cancer cell lines; conditions: drug 10 μM, 72 hours, WST-1; Table 3
[12] = test system: HepG2 (Hepatocellular Carcinoma); assay: Cell viability analysis, hepatic cancer HepG2; conditions: Homo sapiens, HepG2, 72 h
[13] = read-out: cell viability (survival rate), MCF7, drug 10 μM, 72 hours, WST-1, OD450 nm
[14] = read-out: cell viability (survival rate), MKN-45, drug 10 μM, 72 hours, WST-1, OD450 nm
[15] = read-out: cell viability (survival rate), A375, drug 10 μM, 72 hours, WST-1, OD450 nm
[16] = read-out: cell viability (survival rate), TSGH, drug 10 μM, 72 hours, WST-1, OD450 nm
[17] = read-out: cell viability (survival rate), HL-60, drug 10 μM, 72 hours, WST-1, OD450 nm
[18] = read-out: cell viability (survival rate), HeLa, drug 10 μM, 72 hours, WST-1, OD450 nm
[19] = read-out: cell viability (survival rate), AGS, drug 10 μM, 72 hours, WST-1, OD450 nm
[20] = read-out: cell viability (survival rate), PC3, drug 10 μM, 72 hours, WST-1, OD450 nm
[21] = read-out: cell viability (survival rate), H1650, drug 10 μM, 72 hours, WST-1, OD450 nm
[22] = read-out: cell viability (survival rate), A549, drug 10 μM, 72 hours, WST-1, OD450 nm
[23] = read-out: cell viability (survival rate), HepG2, drug 10 μM, 72 hours, WST-1, OD450 nm
[24] = drug 10 μM, 72 hours, WST-1, OD450 nm, read-out: cell viability (survival rate), MCF7
[25] = drug 10 μM, 72 hours, WST-1, OD450 nm, read-out: cell viability (survival rate), MKN-45
[26] = drug 10 μM, 72 hours, WST-1, OD450 nm, read-out: cell viability (survival rate), A375
[27] = drug 10 μM, 72 hours, WST-1, OD450 nm, read-out: cell viability (survival rate), TSGH
[28] = drug 10 μM, 72 hours, WST-1, OD450 nm, read-out: cell viability (survival rate), HL-60
[29] = drug 10 μM, 72 hours, WST-1, OD450 nm, read-out: cell viability (survival rate), HeLa
[30] = drug 10 μM, 72 hours, WST-1, OD450 nm, read-out: cell viability (survival rate), AGS
[31] = drug 10 μM, 72 hours, WST-1, OD450 nm, read-out: cell viability (survival rate), PC3
[32] = drug 10 μM, 72 hours, WST-1, OD450 nm, read-out: cell viability (survival rate), H1650
[33] = drug 10 μM, 72 hours, WST-1, OD450 nm, read-out: cell viability (survival rate), A549
[34] = drug 10 μM, 72 hours, WST-1, OD450 nm, read-out: cell viability (survival rate), HepG2

Row | Compound | viability at 10 µM [1, 13] [%] | viability at 10 µM [2, 14] [%] | viability at 10 µM [3, 15] [%] | viability at 10 µM [4, 16] [%] | viability at 10 µM [5] [%] | viability at 10 µM [6, 17] [%] | viability at 10 µM [7, 18] [%] | viability at 10 µM [8, 19] [%] | viability at 10 µM [9, 20] [%] | viability at 10 µM [10, 21] [%] | viability at 10 µM [11, 22] [%] | inhibition effect on different cancer cell lines (cancer cell lines) | viability at 10 µM [12, 23] [%] | viability at 10 µM [1, 24] [%] | viability at 10 µM [2, 25] [%] | viability at 10 µM [3, 26] [%] | viability at 10 µM [4, 27] [%] | viability at 10 µM [6, 28] [%] | viability at 10 µM [7, 29] [%] | viability at 10 µM [8, 30] [%] | also measured
1 | CCCCCCCCCC(=O)N[C@@H](Cc1c[nH]c2ccccc12)C(=O)N[C@H](CC(N)=O)C(=O)N[C@@H](CC(=O)O)C(=O)N[C@@H]1C(=O)NCC(=O)N[C@@H](CCCN)C(=O)N[C@@H](CC(=O)O)C(=O)N[C@H](C)C(=O)N[C@@H](CC(=O)O)C(=O)NCC(=O)N[C@H](CO)C(=O)N[C@@H]([C@H](C)CC(=O)O)C(=O)N[C@@H](CC(=O)c2ccccc2N)C(=O)O[C@@H]1C [Daptomycin] | 85.3 | 92.1 | 81.2 | 56.8 | 90.9 | 108 | 114 | 63 | 79.7 | 76.3 | 74 | significant inhibition effect | 95.9 | – | – | – | – | – | – | – | –
2 | Nc1ccn(C[C@@H](CO)OCP(=O)(O)O)c(=O)n1 [Cidofovir (Vistide), Cidofovir] | – | – | – | – | 82.3 | – | – | – | – | – | – | significant inhibition effect | – | 78.3 | 56.9 | 82.6 | 49.8 | 112 | 82.1 | 39.6 | viability at 10 µM [9, 31]: 63.9%; viability at 10 µM [10, 32]: 53.3%; viability at 10 µM [11, 33]: 58.3%; viability at 10 µM [12, 34]: 97.2%
3 | Nc1nc2c(ncn2CCC(CO)CO)c(=O)[nH]1 [Penciclovir] | 110 | 98.5 | 64.2 | 79.1 | 98.5 | 114 | 81.7 | 71 | 106 | 71.5 | 74.7 | significant inhibition effect | 95.7 | – | – | – | – | – | – | – | –
4 | N[C@@H](C(=O)N[C@@H]1C(=O)N2C(C(=O)O)=C(Cl)CS[C@H]12)c1ccccc1 [Cefaclor (Ceclor), Cefaclor] | – | – | – | – | 88.2 | – | – | – | – | – | – | significant inhibition effect | – | 90.6 | 97 | 67.5 | 81.6 | 112 | 86.7 | 41.9 | viability at 10 µM [9, 31]: 70.1%; viability at 10 µM [10, 32]: 62.3%; viability at 10 µM [11, 33]: 61%; viability at 10 µM [12, 34]: 108%
5 | Nc1nc(O)c2ncn(COC(CO)CO)c2n1 [Ganciclovir] | 68.6 | 87 | 94.8 | 103 | 99.9 | 98.7 | 107 | 106 | 71.8 | 97.3 | 104 | significant inhibition effect | 109 | – | – | – | – | – | – | – | –
6 | Clc1ccccc1C(c1ccccc1)(c1ccccc1)n1ccnc1 [Clotrimazole (Canesten), Clotrimazole] | 56.8 | 53.9 | 81.4 | 50.8 | 94.1 | 106 | 90 | 85.7 | 69.3 | 75.9 | 85.5 | significant inhibition effect | 102 | – | – | – | – | – | – | – | –
7 | C[C@@H]1CC[C@H]2[C@@H](C)C(=O)O[C@@H]3O[C@@]4(C)CC[C@@H]1[C@]32OO4 [Artemisinin] | 151 | 117 | 88.9 | 63.6 | 104 | 146 | 120 | 87.7 | 92.5 | 106 | 98.7 | significant inhibition effect | 116 | – | – | – | – | – | – | – | –
8 | Nc1[nH]c(=O)ncc1F [Flucytosine (Ancobon), Flucytosine] | 75.3 | 72.9 | 102 | 93.9 | 108 | 102 | 80.9 | 70.7 | 108 | 92.1 | 91.4 | significant inhibition effect | 93.2 | – | – | – | – | – | – | – | –
9 | COc1c(N2CCNC(C)C2)c(F)cc2c(=O)c(C(=O)O)cn(C3CC3)c12 (stereo not drawn) [Gatifloxacin] | – | – | – | – | 98.3 | – | – | – | – | – | – | significant inhibition effect | – | 130 | 84.2 | 63.3 | 65 | 100 | 84.1 | 71.4 | viability at 10 µM [9, 31]: 82.2%; viability at 10 µM [10, 32]: 47.2%; viability at 10 µM [11, 33]: 96%; viability at 10 µM [12, 34]: 65.6%
10 | CN(C)c1ccc(C(=C2C=CC(=[N+](C)C)C=C2)c2ccc(N(C)C)cc2)cc1 [Crystal violet] | 46 | 44.8 | 32 | 44.1 | 62.3 | 37.3 | 38.9 | 52.7 | 31.8 | 68.5 | 37.5 | significant inhibition effect | 70.3 | – | – | – | – | – | – | – | –
11 | CC1(C)O[C@@H]2C[C@H]3[C@@H]4C[C@H](F)C5=CC(=O)C=C[C@]5(C)[C@@]4(F)[C@@H](O)C[C@]3(C)[C@]2(C(=O)CO)O1 [Fluocinolone acetonide (Flucort-N), Fluocinolone acetonide] | – | – | – | – | 52.3 | – | – | – | – | – | – | significant inhibition effect | – | 54.2 | 34.9 | 45.8 | 38.3 | 116 | 46 | 30 | viability at 10 µM [9, 31]: 40.7%; viability at 10 µM [10, 32]: 58.4%; viability at 10 µM [11, 33]: 52.5%; viability at 10 µM [12, 34]: 74.5%
12 | CCn1cc(C(=O)O)c(=O)c2cc(F)c(N3CCNCC3)cc21 [Norfloxacin (Norxacin), Norfloxacin] | 94.8 | 68.9 | 73.8 | 75.9 | 88 | 87.7 | 78.7 | 63.8 | 72.2 | 75 | 84.8 | significant inhibition effect | 90.5 | – | – | – | – | – | – | – | –
